In US20230150960A1, “COMPOSITIONS AND METHODS OF USING CYANINE DYES TO TARGET CANCER AND MITOCHONDRIA” (Thomas Jefferson University, priority 2020, published 2023):

Experiments:
Type in all cases: physicochemical
[1] = Solubility of glycerol-containing formulations (post vortexing, 30 min and overnight at 18° C.); conditions: compound 2 mg/mL; for solubility at 30 min / solubility / solubility at 30 s: glycerol-containing formulation; for solubility at 30 min / solubility: 18 °C; for solubility at 30 min: after 30 minutes incubation at 18° C.; for solubility at 30 s: post vortexing
Experimental: (§1) Tables 3A, 3B, and 3C describe solubility experiments conducted with the indicated compounds under the listed conditions. Vortexing was conducted using a Denville Vortexer 59 (Denville Scientific Inc.), at maximum speed for 30 seconds. As used herein, the term overnight refers to a period lasting at least about 12-24 hours.

[2] = Solubility of BSA-containing formulations (post vortexing, 30 min and overnight at 18° C.); conditions: compound 2 mg/mL; for solubility at 30 min / solubility: BSA-containing formulation, 18 °C, aqueous with cosolvent or surfactant or cyclodextrin; for solubility at 30 min: after 30 minutes incubation at 18° C.
Experimental: Vortexing was conducted using a Denville Vortexer 59 (Denville Scientific Inc.), at maximum speed for 30 seconds. As used herein, the term overnight refers to a period lasting at least about 12-24 hours.

[3] = Solubility of sodium deoxycholate-containing formulations (post vortexing, 30 min and overnight at 18° C.); conditions: compound 2 mg/mL; for solubility at 30 s: post vortexing
Experimental: as §1, with “5A, 5B,” for “3A, 3B,”, “5C” for “3C”

Solubility of glycerol-containing formulations after overnight incubation at 18° C., 50% ([1]; 50% glycerol, overnight incubation at 18° C.): MFG
solubility at 30 min ([1]; aqueous with cosolvent or surfactant or cyclodextrin, 10% glycerol, read-out: Solubility of glycerol-containing formulations after 30 min incubation at 18° C., 10%): < 2000 µg/mL
solubility ([1]; aqueous with cosolvent or surfactant or cyclodextrin, 10% glycerol, overnight incubation at 18° C., read-out: Solubility of glycerol-containing formulations after overnight incubation at 18° C., 10%): < 2000 µg/mL
solubility at 30 min ([1]; aqueous with cosolvent or surfactant or cyclodextrin, 20% glycerol, read-out: Solubility of glycerol-containing formulations after 30 min incubation at 18° C., 20%): < 2000 µg/mL
solubility ([1]; aqueous with cosolvent or surfactant or cyclodextrin, 20% glycerol, overnight incubation at 18° C., read-out: Solubility of glycerol-containing formulations after overnight incubation at 18° C., 20%): < 2000 µg/mL
solubility at 30 min ([1]; aqueous with cosolvent or surfactant or cyclodextrin, 30% glycerol, read-out: Solubility of glycerol-containing formulations after 30 min incubation at 18° C., 30%): < 2000 µg/mL
solubility ([1]; aqueous with cosolvent or surfactant or cyclodextrin, 30% glycerol, overnight incubation at 18° C., read-out: Solubility of glycerol-containing formulations after overnight incubation at 18° C., 30%): < 2000 µg/mL
solubility at 30 min ([1]; aqueous with cosolvent or surfactant or cyclodextrin, 40% glycerol, read-out: Solubility of glycerol-containing formulations after 30 min incubation at 18° C., 40%): < 2000 µg/mL
solubility ([1]; aqueous with cosolvent or surfactant or cyclodextrin, 40% glycerol, overnight incubation at 18° C., read-out: Solubility of glycerol-containing formulations after overnight incubation at 18° C., 40%): < 2000 µg/mL
solubility at 30 min ([1]; aqueous with cosolvent or surfactant or cyclodextrin, 50% glycerol, read-out: Solubility of glycerol-containing formulations after 30 min incubation at 18° C., 50%): > 2000 µg/mL
solubility at 30 min ([1]; 0% glycerol, read-out: Solubility of glycerol-containing formulations after 30 min incubation at 18° C., 0%): < 2000 µg/mL
solubility ([1]; 0% glycerol, overnight incubation at 18° C., read-out: Solubility of glycerol-containing formulations after overnight incubation at 18° C., 0%): < 2000 µg/mL
solubility at 30 s ([1]; aqueous with cosolvent or surfactant or cyclodextrin, 10% glycerol, read-out: Solubility of glycerol-containing formulations post vortexing, 10%): < 2000 µg/mL
solubility at 30 s ([1]; aqueous with cosolvent or surfactant or cyclodextrin, 20% glycerol, read-out: Solubility of glycerol-containing formulations post vortexing, 20%): < 2000 µg/mL
solubility at 30 s ([1]; aqueous with cosolvent or surfactant or cyclodextrin, 30% glycerol, read-out: Solubility of glycerol-containing formulations post vortexing, 30%): < 2000 µg/mL
solubility at 30 s ([1]; aqueous with cosolvent or surfactant or cyclodextrin, 40% glycerol, read-out: Solubility of glycerol-containing formulations post vortexing, 40%): < 2000 µg/mL
solubility at 30 s ([1]; aqueous with cosolvent or surfactant or cyclodextrin, 50% glycerol, read-out: Solubility of glycerol-containing formulations post vortexing, 50%): > 2000 µg/mL
solubility at 30 s ([1]; 0% glycerol, read-out: Solubility of glycerol-containing formulations post vortexing, 0%): < 2000 µg/mL
solubility at 30 min ([2]; BSA 5 mg/mL, read-out: Solubility of BSA-containing formulations after 30 min incubation at 18° C., 5 mg/mL): < 2000 µg/mL
solubility at 30 min ([2]; BSA 10 mg/mL, read-out: Solubility of BSA-containing formulations after 30 min incubation at 18° C., 10 mg/mL): < 2000 µg/mL
solubility at 30 min ([2]; BSA 15 mg/mL, read-out: Solubility of BSA-containing formulations after 30 min incubation at 18° C., 15 mg/mL): < 2000 µg/mL
solubility at 30 min ([2]; BSA 25 mg/mL, read-out: Solubility of BSA-containing formulations after 30 min incubation at 18° C., 25 mg/mL): > 2000 µg/mL
solubility at 30 min ([2]; BSA 80 mg/mL, read-out: Solubility of BSA-containing formulations after 30 min incubation at 18° C., 80 mg/mL): > 2000 µg/mL
solubility ([2]; BSA 80 mg/mL, overnight incubation at 18° C., read-out: Solubility of BSA-containing formulations after overnight incubation at 18° C., 80 mg/mL): > 2000 µg/mL
solubility at 30 min ([2]; BSA 100 mg/mL, read-out: Solubility of BSA-containing formulations after 30 min incubation at 18° C., 100 mg/mL): > 2000 µg/mL
solubility ([2]; BSA 100 mg/mL, overnight incubation at 18° C., read-out: Solubility of BSA-containing formulations after overnight incubation at 18° C., 100 mg/mL): > 2000 µg/mL
Solubility of BSA-containing formulations after overnight incubation at 18° C., 5 mg/mL ([2]; BSA 5 mg/mL, overnight incubation at 18° C.): MFG
Solubility of BSA-containing formulations after overnight incubation at 18° C., 10 mg/mL ([2]; BSA 10 mg/mL, overnight incubation at 18° C.): MFG
Solubility of BSA-containing formulations after overnight incubation at 18° C., 15 mg/mL ([2]; BSA 15 mg/mL, overnight incubation at 18° C.): MFG
Solubility of BSA-containing formulations after overnight incubation at 18° C., 25 mg/mL ([2]; BSA 25 mg/mL, overnight incubation at 18° C.): MFG
Solubility of sodium deoxycholate-containing formulations after 30 min incubation at 18° C., 50 mg/mL ([3]; sodium deoxycholate 50 mg/mL, after 30 minutes incubation at 18° C.): MFG
Solubility of sodium deoxycholate-containing formulations after 30 min incubation at 18° C., 100 mg/mL ([3]; sodium deoxycholate 100 mg/mL, after 30 minutes incubation at 18° C.): MFG
solubility at 30 s ([3]; sodium deoxycholate-containing formulation, aqueous with cosolvent or surfactant or cyclodextrin, sodium deoxycholate 12.5 mg/mL, read-out: Solubility of sodium deoxycholate-containing formulations post vortexing, 12.5 mg/mL): < 2000 µg/mL
solubility at 30 s ([3]; sodium deoxycholate-containing formulation, aqueous with cosolvent or surfactant or cyclodextrin, sodium deoxycholate 25 mg/mL, read-out: Solubility of sodium deoxycholate-containing formulations post vortexing, 25 mg/mL): < 2000 µg/mL
solubility at 30 s ([3]; sodium deoxycholate-containing formulation, aqueous with cosolvent or surfactant or cyclodextrin, sodium deoxycholate 50 mg/mL, read-out: Solubility of sodium deoxycholate-containing formulations post vortexing, 50 mg/mL): < 2000 µg/mL
solubility at 30 s ([3]; sodium deoxycholate-containing formulation, aqueous with cosolvent or surfactant or cyclodextrin, sodium deoxycholate 100 mg/mL, read-out: Solubility of sodium deoxycholate-containing formulations post vortexing, 100 mg/mL): < 2000 µg/mL
solubility at 30 min ([3]; sodium deoxycholate-containing formulation, aqueous with cosolvent or surfactant or cyclodextrin, sodium deoxycholate 12.5 mg/mL, after 30 minutes incubation at 18° C.): < 2000 µg/mL
solubility ([3]; sodium deoxycholate-containing formulation, aqueous with cosolvent or surfactant or cyclodextrin, sodium deoxycholate 12.5 mg/mL, overnight incubation at 18° C., read-out: Solubility of sodium deoxycholate-containing formulations after overnight incubation at 18° C., 12.5 mg/mL): < 2000 µg/mL
Structure (SMILES): CCN1/C(=C/C=C/c2sc3ccccc3[n+]2CC)Sc2ccccc21 [JAC-B1, 3′,3′-Diethylthiacarbocyanine iodide]
